Measured values from PubChem BioAssay AID330 (DTP/NCI, 2004).
Where “and” joins values, the source holds several entries; their conditions need not be identical. Equal values may be shown once. Inconclusive results and toxic doses are left out. Rule for the calls: active = survival T/C of 150% or more; inactive = T/C below 125% in these data. Peptide text beside a SMILES is read from it. * marks the point of attachment. Cbz = O=C(OCc1ccccc1)*

Tested on: P388 leukemia ip, CD2F1 mice, survival T/C
Assay: NCI In Vivo Anticancer Drug Screen. Data for tumor model P388 Leukemia (intraperitoneal) in CD2F1 (CDF1) mice
Conditions: endpoint: median survival time, higher = longer survival
Method in brief: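 Mice carrying the transplanted tumor received test compound or vehicle. Survival was recorded in each group, and the value is the treated-group measurement divided by that of the vehicle-treated control group.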

[1] = dose: 60.0 mg/kg/injection, schedule: Q01DX005 (ip), vehicle: saline with Tween-80
[2] = dose: 120.0 mg/kg/injection, schedule: Q01DX005 (ip), vehicle: saline with Tween-80
[3] = dose: 240.0 mg/kg/injection, schedule: Q01DX005 (ip), vehicle: saline with Tween-80
[4] = dose: 50.0 mg/kg/injection, schedule: Q01DX009 (ip), vehicle: saline with Tween-80
[5] = dose: 100.0 mg/kg/injection, schedule: Q01DX009 (ip), vehicle: saline with Tween-80
[6] = dose: 200.0 mg/kg/injection, schedule: Q01DX009 (ip), vehicle: saline with Tween-80
[7] = dose: 50.0 mg/kg/injection, schedule: Q01DX009 (ip), vehicle: Klucel (hydroxypropylcellulose) (HPC)
[8] = dose: 100.0 mg/kg/injection, schedule: Q01DX009 (ip), vehicle: Klucel (hydroxypropylcellulose) (HPC)
[9] = dose: 100.0 mg/kg/injection, schedule: Q01DX001 (ip), vehicle: saline with Tween-80
[10] = dose: 200.0 mg/kg/injection, schedule: Q01DX001 (ip), vehicle: saline with Tween-80
[11] = dose: 400.0 mg/kg/injection, schedule: Q01DX001 (ip), vehicle: saline with Tween-80
[12] = dose: 50.0 mg/kg/injection, schedule: Q01DX005 (ip), vehicle: Klucel (hydroxypropylcellulose) (HPC)
[13] = dose: 100.0 mg/kg/injection, schedule: Q01DX005 (ip), vehicle: Klucel (hydroxypropylcellulose) (HPC)
[14] = dose: 200.0 mg/kg/injection, schedule: Q01DX005 (ip), vehicle: Klucel (hydroxypropylcellulose) (HPC)
[15] = dose: 100.0 mg/kg/injection, schedule: Q01DX009 (ip), vehicle: saline
[16] = dose: 200.0 mg/kg/injection, schedule: Q01DX009 (ip), vehicle: saline
[17] = dose: 60.0 mg/kg/injection, schedule: Q01DX005 (ip), vehicle: Klucel (hydroxypropylcellulose) (HPC)
[18] = dose: 120.0 mg/kg/injection, schedule: Q01DX005 (ip), vehicle: Klucel (hydroxypropylcellulose) (HPC)
[19] = dose: 240.0 mg/kg/injection, schedule: Q01DX005 (ip), vehicle: Klucel (hydroxypropylcellulose) (HPC)
[20] = dose: 200.0 mg/kg/injection, schedule: Q01DX009 (ip), vehicle: Klucel (hydroxypropylcellulose) (HPC)
[21] = dose: 50.0 mg/kg/injection, schedule: Q01DX005 (ip), vehicle: saline with Tween-80
[22] = dose: 100.0 mg/kg/injection, schedule: Q01DX005 (ip), vehicle: saline with Tween-80
[23] = dose: 200.0 mg/kg/injection, schedule: Q01DX005 (ip), vehicle: saline with Tween-80
[24] = dose: 100.0 mg/kg/injection, schedule: Q04DX002 (ip), vehicle: saline with Tween-80
[25] = dose: 100.0 mg/kg/injection, schedule: Q04DX002 (ip), vehicle: saline
[26] = dose: 200.0 mg/kg/injection, schedule: Q04DX002 (ip), vehicle: saline
[27] = dose: 400.0 mg/kg/injection, schedule: Q04DX002 (ip), vehicle: saline

Measured: T/C

S=C(SCc1c(Cl)cccc1Cl)N1CCSCC1
inactive: [1] 102 % of control | [2] 93 % of control | [3] 96 % of control

[Cl][Rh][Cl].[NH-]c1nc(-c2ccccc2)cs1.[NH-]c1nc(-c2ccccc2)cs1.[NH-]c1nc(-c2ccccc2)cs1.[NH-]c1nc(-c2ccccc2)cs1
inactive: dose: 100.0 mg/kg/injection, schedule: Q01DX001 (ip), vehicle: DMSO 97 % of control | dose: 200.0 mg/kg/injection, schedule: Q01DX001 (ip), vehicle: DMSO 94 % of control | dose: 400.0 mg/kg/injection, schedule: Q01DX001 (ip), vehicle: DMSO 98 % of control

Cc1cc(O)c(C(c2cccnc2)c2c(O)cc(C)[nH]c2=O)c(=O)[nH]1
inactive: [4] 104 % of control | [5] 98 % of control | [6] 99 % of control

CC(C)(C)CC(C)(C)c1ccc(OCCOc2ccc(C(=O)NCCNC(=O)c3ccc4ccccc4c3O)cc2N)cc1
inactive: dose: 6.25 mg/kg/injection, schedule: Q01DX009 (ip), vehicle: Klucel (hydroxypropylcellulose) (HPC) 102 % of control | dose: 12.5 mg/kg/injection, schedule: Q01DX009 (ip), vehicle: Klucel (hydroxypropylcellulose) (HPC) 114 % of control | dose: 25.0 mg/kg/injection, schedule: Q01DX009 (ip), vehicle: Klucel (hydroxypropylcellulose) (HPC) 102 % of control | [7] 98 % of control | [8] 102 % of control

O=C1CCC(N(Cc2ccccc2)Cc2ccccc2)C(=O)O1 (centres undefined)
inactive: dose: 100.0 mg/kg/injection, schedule: Q04DX003 (ip), vehicle: Klucel (hydroxypropylcellulose) (HPC) 112 % of control | dose: 200.0 mg/kg/injection, schedule: Q04DX003 (ip), vehicle: Klucel (hydroxypropylcellulose) (HPC) 109 % of control | dose: 400.0 mg/kg/injection, schedule: Q04DX003 (ip), vehicle: Klucel (hydroxypropylcellulose) (HPC) 100 % of control

COC(=O)c1ccc(/C=C/C(=O)c2ccc(C(=O)OC)cc2)cc1
inactive: [9] 106 % of control | [10] 101 % of control | [11] 98 % of control

Nc1nc(=O)n(C2CCCCO2)cc1Br (centres undefined)
inactive: [12] 104 % of control | [13] 109 % of control | [14] 97 % of control

Cc1cc(O)c(Cl)cc1Cl
inactive: [15] 100 % of control | [16] 99 % of control | dose: 400.0 mg/kg/injection, schedule: Q01DX009 (ip), vehicle: saline 97 % of control

Oc1cccnc1[Se]
inactive: [17] 112 % of control | [18] 106 % of control | [19] 110 % of control

CC(=O)Oc1ccc2c(c1)C(=O)c1nc(C)c(C)nc1C2=O
inactive: [12] 102 % of control | [13] 102 % of control | [14] 109 % of control

COc1ccc(NC(=O)Nc2ccc(Cl)cc2)nn1
inactive: [7] 103 % of control | [8] 101 % of control | [20] 94 % of control

O=C1OC(O)c2cccc3cccc1c23 (centres undefined)
inactive: [17] 98 % of control | [18] 100 % of control | [19] 94 % of control

C[N+](C)(C)c1ccc2c(c1)CCC/C2=N\N
inactive: dose: 1.56 mg/kg/injection, schedule: Q04DX003 (ip), vehicle: saline 100 % of control | dose: 3.13 mg/kg/injection, schedule: Q04DX003 (ip), vehicle: saline 100 % of control | dose: 6.25 mg/kg/injection, schedule: Q04DX003 (ip), vehicle: saline 97 % of control

O=C(NC(Cc1ccccc1)C(=O)NC(CO)C(=O)O)OCc1ccccc1 (stereo not drawn) (Cbz-Phe-Ser-OH; configuration not given here)
inactive: [21] 100 % of control | [22] 100 % of control | [23] 98 % of control

Fc1cccc(-n2nc3c(c2-c2cccnc2)CCCc2ccccc2-3)c1
inactive: dose: 100.0 mg/kg/injection, schedule: Q01DX001 (ip), vehicle: Klucel (hydroxypropylcellulose) (HPC) 106 % of control | dose: 200.0 mg/kg/injection, schedule: Q01DX001 (ip), vehicle: Klucel (hydroxypropylcellulose) (HPC) 102 % of control | dose: 400.0 mg/kg/injection, schedule: Q01DX001 (ip), vehicle: Klucel (hydroxypropylcellulose) (HPC) 106 % of control

CC(C)NC(C#N)C(C)C (centres undefined)
inactive: dose: 3.12 mg/kg/injection, schedule: Q01DX005 (ip), vehicle: Klucel (hydroxypropylcellulose) (HPC) 99 % of control | dose: 6.25 mg/kg/injection, schedule: Q01DX005 (ip), vehicle: Klucel (hydroxypropylcellulose) (HPC) 108 % of control | dose: 12.5 mg/kg/injection, schedule: Q01DX005 (ip), vehicle: Klucel (hydroxypropylcellulose) (HPC) 102 % of control

CCOC(=O)Cc1ccccn1
inactive: [8] 109 % of control | [20] 110 % of control | dose: 400.0 mg/kg/injection, schedule: Q01DX009 (ip), vehicle: Klucel (hydroxypropylcellulose) (HPC) 119 % of control

O=C1C=CC(=O)c2nc3ccccc3nc21
inactive: dose: 1.56 mg/kg/injection, schedule: Q01DX009 (ip), vehicle: distilled water + Tween-80 87 % of control | dose: 3.12 mg/kg/injection, schedule: Q01DX009 (ip), vehicle: distilled water + Tween-80 103 % of control | dose: 6.25 mg/kg/injection, schedule: Q01DX009 (ip), vehicle: distilled water + Tween-80 105 % of control and 106 % of control

CCN(CC)c1c(C)c(-c2ccccc2)oc(=O)c1Cl
inactive: [21] 100 % of control | [22] 100 % of control | [23] 115 % of control

O=C1/C(=C/c2ccc(O)cc2)Oc2cc(O)ccc21
inactive: [9] 97 % of control | [10] 91 % of control | [11] 92 % of control

c1ccc(SCCC(Sc2ccccc2)Sc2ccccc2)cc1
inactive: dose: 50.0 mg/kg/injection, schedule: Q01DX009 (ip), vehicle: saline 100 % of control | [15] 106 % of control | [16] 106 % of control

O=C1CSC(c2cccnc2)N1CCN1C(=O)CSC1c1cccnc1 (centres undefined)
inactive: [1] 105 % of control | [24] 112 % of control | [2] 105 % of control | dose: 200.0 mg/kg/injection, schedule: Q04DX002 (ip), vehicle: saline with Tween-80 112 % of control | [3] 101 % of control | dose: 400.0 mg/kg/injection, schedule: Q04DX002 (ip), vehicle: saline with Tween-80 109 % of control

CN(C)c1cc(=O)c2c(ccc3ccccc32)o1
inactive: [4] 92 % of control | [5] 95 % of control | [6] 95 % of control

CN(C)c1ccc(C2OC2C(=O)n2ccc(=O)n(C(=O)C3OC3c3ccc(N(C)C)cc3)c2=O)cc1 (centres undefined)
inactive: [25] 101 % of control | [26] 100 % of control | [27] 97 % of control

O=C1C(C(=Nc2ccc(Br)cc2)c2ccccc2)=C(O)c2ccccc21
inactive: dose: 25.0 mg/kg/injection, schedule: Q04DX002 (ip), vehicle: saline with Tween-80 93 % of control | dose: 50.0 mg/kg/injection, schedule: Q04DX002 (ip), vehicle: saline with Tween-80 99 % of control | [24] 92 % of control

CCCn1c(Cl)c(/C=N\Nc2ccc([N+](=O)[O-])cc2[N+](=O)[O-])c2ccccc21
inactive: dose: 100.0 mg/kg/injection, schedule: Q04DX003 (ip), vehicle: saline with Tween-80 92 % of control | dose: 200.0 mg/kg/injection, schedule: Q04DX003 (ip), vehicle: saline with Tween-80 97 % of control | dose: 400.0 mg/kg/injection, schedule: Q04DX003 (ip), vehicle: saline with Tween-80 92 % of control

CCC1(c2ccccc2)C(=O)c2ccccc2C1=O
inactive: [25] 101 % of control | [26] 102 % of control | [27] 105 % of control

COc1cc(-c2n[nH]c(=O)o2)cc(OC)c1OC
inactive: [7] 105 % of control | [8] 100 % of control | [20] 105 % of control
